Results on two substances are retold here after patent US6696578B2, “Difuropyrone derivatives” (Mount Sinai Hospital, priority 1999, dated 2004).

The subject of data set [1] is SM and MD cartilage cultures (calf metaphalangeal joint chondrocytes). Description: Bovine cartilage cultures treated with interleukin-1β. Type of data set: cell-based. The settings on record: 10 ng/ml for 7 days prior to harvesting. How it is done: Articular cartilage was excised separately from the superficial-middle (SM) or middle-deep (MD) layers of calf metaphalangeal joint using a sterile technique as described by Boyle et al. The cartilage slices were placed in a petri dish containing Ham's F12 and 1% antibiotics in HAT. Chondrocytes were isolated from the SM and MD extracellular matrix by sequential enzymatic digestion using proteinase (0.5%, 1 hour, 37° C.), washed three times with Ham's F12 medium and finally digested with collagenase A (0.1%, overnight, 37° C.). Teflon filter inserts (Millicell CMR, Millipore Corp., Bedford, Mass., USA) were placed into the wells of the 24 well culture dish, coated with type II collagen (0.5 mg/ml of 0.1N acetic acid), dried overnight and UV sterilized for 30 mins. The filter inserts were washed thoroughly with Ham's F12 before plating the cells. The isolated SM and MD chondrocytes were washed extensively and resuspended in Ham's F12 with 5% fetal bovine serum (FBS) and plated on the teflon inserts at a density of 3.0×10^6/cm^2. The cells were supplemented with the medium containing 20% FBS and 100 μg/ml ascorbic acid (added fresh at all times) from day 7 onwards every alternate working day. Some cartilage filter cultures were treated with 10 ng/ml interleukin-1β (Il-1β, human recombinant, Sigma) for 7 days (three changes of the Ham's F12 with 20% FBS and Il-1β) prior to harvesting. The chondrocytes were grown at 37° C., 100% humidity and 5% CO2. The chondrocyte cultures were harvested at fixed time points i.e. day 21, 35, and 56 and stored at −20° C. till the analysis day.
The untreated (controls) and Il-1β-treated SM and MD cartilage cultures were analyzed for cartilage thickness and collagen, proteoglycan, pyridinoline, deoxypyridinoline, and CM-1 content as described herein.

A short description of data set [2]: Storage of CM-1 calibrator at room temperature or in freezer, UV absorbance. The settings on record: calibrator in 50% methanol, eight months; for UV absorbance at 306 nm after storage: reference calibrator 0.69 AU. The data set is classed as physicochemical. How it is done: The UV absorbance of CM-1 calibrator (30 ug/ml of 50% methanol) was measured. An aliquot of CM-1 calibrator was kept on the bench top for […], and another aliquot was kept in a storage box in a −70° C. freezer for an equal length of time. The UV absorbance of CM-1 calibrator aliquot was measured after eight months of respective storage procedure.

The nature of data set [3]: Solubility of CM-1 in various solvents. The data set is classed as physicochemical.
Data set [4] in a line: Rehydrolysis of purified CM-1 calibrator with 6N HCl for different time points. The settings on record: 110° C. The data set is classed as physicochemical. How it is done:
100 μl of CM-1 calibrator was lyophilized, resuspended in 3.0 ml of 50% methanol and UV absorbance was measured. Five aliquots of 500 μl each were rehydrolyzed with 1000 μl 6N HCl at 110° C. for 3, 6, 12, 24 and 48 hrs. The rehydrolyzed CM-1 was lyophilized and resuspended in 500 μl of 50% methanol and UV absorbance was measured. Methanol was then evaporated and the samples were resuspended in 500 μl of the mobile phase and injected into the HPLC analytical column. The results of rehydrolysis of CM-1 were compared to the unhydrolyzed CM-1 calibrator.

Data set [5] in a line: Rehydrolysis of purified CM-1 with 6N HCl, UV absorption. The settings on record: purified CM-1, 6N HCl, 110° C., 48 hrs. Type of data set: physicochemical. How it is done: An aliquot of purified CM-1 was lyophilized. The lyophilized CM-1 was resuspended in 7 ml of 50% HPLC grade methanol. The UV absorption of CM-1 was measured at 306 nm using a Shimatzu Spectrophotometer. The methanol was evaporated and CM-1 was rehydrolysed for 48 hrs in 6N HCl at 110° C. CM-1 was then lyophilized and resuspended in 7 ml of 50% HPLC grade methanol. The UV absorption of CM-1 was measured.

In the case of “Il-1β: interleukin-1β, human recombinant, Sigma; used to treat cartilage filter cultures”, the “glycosaminoglycan (GAG) content” value in data set [1] (SM and DM groups) is given as “decreased”. Also, the collagen content entry in data set [1] (SM and DM groups, in particular day 56) was “decreased”. Also, the “cartilage thickness versus untreated controls” value in data set [1] (SM and MD groups) is reported as “thinner”. Also, in data set [1] (day 35 and more so day 56), the “Pyd and Dpyd content” value was “decrease”.

For the substance 2,6-dimethyl-difuro-8-pyrone [CM-1], the “decrease of UV absorbance at 306 nm after storage” value in data set [2] (room temperature) was 75%. The “UV absorbance at 306 nm after storage” value was found to be 0.1718 AU in data set [2] (room temperature) and 0.73 AU in data set [2] (−70° C. freezer). Also, the solubility entry in data set [3] (chloroform) is listed as “insoluble”; in data set [3] (hexane), “insoluble”; in data set [3] (methanol), “highly soluble”; in data set [3] (water) it was “highly soluble”. Moreover, the “CM-1 yield after rehydrolysis (unhydrolyzed calibrator = 100%)” value in data set [4] (3 hrs (maintained up to 12 hrs)) is 64%; in data set [4] (24 hrs), 19%; in data set [4] (48 hrs), 4.5%. Besides, the “stability when rehydrolyzed with 6N HCl” value in data set [4] (prolonged period) is reported as “not stable”. For the same substance, in data set [5], the “decrease of UV absorption at 276 nm after rehydrolysis” value is recorded as 51%. Also, the “decrease of UV absorption at 306 nm after rehydrolysis” value in data set [5] is given as 75%. Also, the “UV absorption at 276 nm after rehydrolysis” value in data set [5] (before treatment 1.00 (278 nm)) is reported as 0.4865 AU. The “UV absorption at 306 nm after rehydrolysis” value in data set [5] (before treatment 1.884) was found to be 0.469 AU.
